This is an account of results in patent US10179777B2, “3-(1H-benzimidazol-2-yl)-1H-pyridin-2-one derivatives” (MERCK PATENT GMBH, priority 2015, dated 2019).

SMILES strings stand for the structures.

Assay [1] concerns the target T1, ALK2 (GST-modified kinase domain ACVR1(145-509)) (Homo sapiens, UniProt Q04771).
T1 construct: N-terminally GST-modified kinase domain ACVR1(145-509); GST (N)
T1 sequence (Q04771 145-509): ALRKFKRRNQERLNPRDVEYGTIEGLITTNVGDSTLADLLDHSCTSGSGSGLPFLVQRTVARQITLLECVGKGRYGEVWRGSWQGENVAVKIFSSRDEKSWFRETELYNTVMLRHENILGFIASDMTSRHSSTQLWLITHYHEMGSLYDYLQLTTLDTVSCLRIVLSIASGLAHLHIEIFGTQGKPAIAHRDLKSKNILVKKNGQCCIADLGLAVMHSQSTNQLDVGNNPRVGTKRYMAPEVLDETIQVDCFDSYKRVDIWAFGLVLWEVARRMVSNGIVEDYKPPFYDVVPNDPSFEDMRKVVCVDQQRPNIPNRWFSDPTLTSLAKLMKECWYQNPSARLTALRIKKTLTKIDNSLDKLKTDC
As to the kind of experiment: ALK2 kinase inhibition assay (33P-ATP filter binding, Reaction Biology). Format: biochemical. The following applies: casein substrate, 20 μM ATP (Km ATP), 120 min ambient temperature. On the procedure: (§1) The protein sequences of the kinases targeted and accompanying information are described in publically available data base http://www.uniprot.org/uniprot/for ALK1 www.uniprot.org/uniprot/P37023, for ALK2 www.uniprot.org/uniprot/Q04771 and for ALK5 www.uniprot.org/uniprot/P36897. IC50 determination of the novel inhibitors described was performed at Reaction Biology Corp., Malvern, Pa., USA, with assay conditions open to public at www.reactionbiology.com/webapps/site/KinaseDetail.aspx?page=Kinases&id=1, and www.reactionbiology.com/webapps/site/Kinase Assay Protocol.aspx. In addition, they were specified previously in Anastassiadis et al. Nat. Biotechnol. 29(11): 1039-1045. doi:10.1038/nbt.2017.
A2) ALK2 Kinase Inhibition Assay
(§2) was performed similar to procedure A1 with N-terminally GST-modified kinase domain ACVR1(145-509) and 1 mg/ml Casein as substrate in reaction buffer of 20 mM HEPES pH 7.5, 10 mM MgCl2, 1 mM EGTA, 0.02% Brij, 0.02 mg/ml BSA, 0.1 mM Na3VO4, 2 mM DTT, 1% DMSO. […] Reactions were carried out at ambient temperature for 120 min, followed by spotting of the reactions onto P81 ion exchange filter paper (Whatman Inc., Picataway, N.J., USA). Unbound phosphate was removed by extensive washing of filters in 0.75% phosphoric acid. After subtraction of background derived from control reactions without enzyme activity, kinase activity data was expressed as the percent remaining kinase activity in test samples compared to vehicle (DMSO) reactions. IC50 values and curve fits were obtained using Prism (GraphPad Software).

Assay [2] addresses T2, ALK1 (GST-modified kinase domain ACVRL1 (139-503)) (Homo sapiens, UniProt P37023).
T2 construct: N-terminally GST-modified kinase domain ACVRL1 (139-503); GST (N)
T2 sequence (P37023 139-503): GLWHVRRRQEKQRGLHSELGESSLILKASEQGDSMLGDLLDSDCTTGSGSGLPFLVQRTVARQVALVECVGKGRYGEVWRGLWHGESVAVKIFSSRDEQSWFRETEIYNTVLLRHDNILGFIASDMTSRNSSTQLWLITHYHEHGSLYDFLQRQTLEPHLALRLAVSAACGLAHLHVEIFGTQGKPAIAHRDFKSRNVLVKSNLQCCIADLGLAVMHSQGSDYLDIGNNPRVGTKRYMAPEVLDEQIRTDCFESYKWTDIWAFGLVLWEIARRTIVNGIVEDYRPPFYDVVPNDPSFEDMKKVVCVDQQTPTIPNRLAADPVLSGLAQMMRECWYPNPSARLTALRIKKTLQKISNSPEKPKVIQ
Briefly: ALK1 kinase inhibition assay (33P-ATP filter binding, Reaction Biology). In kind it is biochemical. As to conditions: casein substrate, 100 μM ATP (Km ATP), 120 min ambient temperature. On the procedure: as §1
A1) ALK1 Kinase Inhibition Assay
as §2, with “performed” for “performed similar to procedure A1”, “domain ACVRL1 (139-503)” for “domain ACVR1(145-509)”, “and 20” for “and 1”

In assay [3] the test system is ALK1-mediated SMAD1/5 phosphorylation in HUVEC cells. Briefly: Cell-based immunofluorescence assay for ALK1-mediated SMAD1/5 phosphorylation in HUVEC cells. As to conditions: Homo sapiens, 1.5 ng/ml BMP-9 with compound for 2 h, % nuclei with pSMAD1/5 signal, read-out: Smad 1/5 IC50. From the text: In vitro cell-based Immunofluorescence-Assay for identification of inhibitors of ALK1-mediated SMAD1/5 phosphorylation in HUVEC cells:
ALK1 is a type I cell-surface receptor for the TGF-β superfamily of ligands. In adults ALK1 is mainly expressed on activated endothelial cells, e.g. during wound healing or in tumor angiogenesis. BMP9 and BMP10 are high affinity ligands for ALK1.
BMP9 and BMP10 binding leads to the phosphorylation of so-called Smad1 at Ser463 and Ser465 in the carboxy-terminal motif SSXS, as well as Smad5 and Smad8 at their corresponding sites. These phosphorylated Smads dimerize with the coactivating Smad4 and translocate to the nucleus, where they stimulate transcription of target genes.
Primary endothelial cells (HUVEC: Human Umbilical Vein Endothelial Cells; supplier Promocell) are cultivated in the culture medium obtained from Promocell (with supplements corresponding to 5% FCS) for maximum 5 passages, seeded into black 384-well culture plates with clear bottom (3000 cells/well/30 μl), and incubated for 16-24 hours at 37° C., 5% CO2 and 90% rH.
The following day cells were serum-starved for 2-3 h in order to stop TGF-ß-mediated signalling derived from ligands present in FBS. 1.5 ng/ml BMP-9 was than added in parallel with test compounds for 2 h at 37° C., 5% CO2 in order to identify compounds which block functional activity of ALK1 leading to phosphorylation and nuclear translocation of SMAD1/5/8.
After fixation (15 min 4% Formaldehyd in PBS) and permeabilization (10 min 0.2% Triton X-100 in PBS) an indirect immunocytochemical staining is performed with a specific Phospho-Smad1/5 (Ser463/465) antibody (Cell Signaling #9516) and Alexa488-labelled secondary anti-rabbit-IgG-antibody. DNA staining with Propidium Iodide allowed parallel cell counting. Image acquisition and analysis was performed on an MDS ImageXpress Ultra confocal High Content Reader using the image analysis software MetaXpress. Final read-out were % nuclei with a pSMAD1/5 signal above a defined background.
The final DMSO concentration in the assay was 0.5%. DMSO-treated HUVEC cells served as neutral control (=0%) and cells treated with 10 μM of a reference inhibitor described in a patent served as inhibitor control (=−100%). Raw data were normalised to the neutral and inhibitory references. The assay was performed as dose response (10 compound dilutions, 1 nM-30 μM).

Regarding `O=c1[nH]cc(-c2ccnc3ccccc23)cc1-c1nc2ccccc2[nH]1` [Compound A2, 3-(1H-Benzimidazol-2-yl)-5-quinolin-4-yl-1H-pyridin-2-one], the values for the IC50 in assay [1] and in assay [2] were 0.63 µM and 1.4 µM, respectively.

`O=c1[nH]cc(-c2ccncc2)cc1-c1nc2ccc(Cl)cc2[nH]1` [Compound A3, 5-(5-Chloro-1H-benzimidazol-2-yl)-1H-[3,4′]bipyridinyl-6-one] returned an IC50 in assay [2] of 8.9 µM.

`Cc1ccc2nc(-c3cc(-c4ccncc4)c[nH]c3=O)[nH]c2c1` [Compound A4, 5-(5-Methyl-1H-benzimidazol-2-yl)-1H-[3,4′]bipyridinyl-6-one]: the IC50 in assay [1] stood at 5.4 µM; in assay [2] it was 9.2 µM.

As to `Cc1cccc2[nH]c(-c3cc(-c4ccncc4)c[nH]c3=O)nc12` [Compound A5, 5-(4-Methyl-1H-benzimidazol-2-yl)-1H-[3,4′]bipyridinyl-6-one], the IC50 in assay [1] was determined as 5.7 µM; in assay [2], 10 µM.

As to `O=c1[nH]cc(-c2ccnc3ccccc23)cc1-c1nc2cc(N3CCOCC3)ccc2[nH]1` [Compound A9, 3-(6-Morpholin-4-yl-1H-benzimidazol-2-yl)-5-quinolin-4-yl-1H-pyridin-2-one], the IC50 in assay [3] was 5.7 µM.

For the molecule `O=c1[nH]cc(-c2ccnc3ccccc23)cc1-c1nc2cc(Oc3ccncc3)ccc2[nH]1` [Compound A10, 3-[5-(Pyridin-4-yloxy)-1H-benzimidazol-2-yl]-5-quinolin-4-yl-1H-pyridin-2-one], the IC50 in assay [1] is 0.43 µM; in assay [2], 0.95 µM.

Regarding `O=c1[nH]cc(-c2cc(CO)ccc2Cl)cc1-c1nc2cc(N3CCOCC3)ccc2[nH]1` [Compound A11, 5-(2-Chloro-5-hydroxymethyl-phenyl)-3-(5-morpholin-4-yl-1H-benzimidazol-2-yl)-1H-pyridin-2-one], the IC50 in assay [3] worked out at 6.5 µM.

For the molecule `O=c1[nH]cc(-c2ccnc3ccccc23)cc1-c1nc2cc(N3CCNCC3)ccc2[nH]1` [Compound A14, 3-(6-Piperazin-1-yl-1H-benzimidazol-2-yl)-5-quinolin-4-yl-1H-pyridin-2-one], the IC50 in assay [3] is 5.7 µM.

As for `O=c1[nH]cc(-c2c[nH]c3ccccc23)cc1-c1nc2cc(N3CCNCC3)ccc2[nH]1` [Compound A15, 5-(1H-Indol-3-yl)-3-(6-piperazin-1-yl-1H-benzimidazol-2-yl)-1H-pyridin-2-one], in assay [2], the IC50 is 3.5 µM.

Consider `O=c1[nH]cc(-c2ccnc3ccoc23)cc1-c1nc2cc(N3CCNCC3)ccc2[nH]1` [Compound A18, 5-Furo[3,2-b]pyridin-7-yl-3-(5-piperazin-1-yl-1H-benzimidazol-2-yl)-1H-pyridin-2-one], for which the IC50 in assay [3] is 2 µM.

With `COCc1cccc(-c2c[nH]c(=O)c(-c3nc4cc(N5CCNCC5)ccc4[nH]3)c2)c1` [Compound A19, 5-(3-Methoxymethyl-phenyl)-3-(5-piperazin-1-yl-1H-benzimidazol-2-yl)-1H-pyridin-2-one], the IC50 in assay [3] amounted to 11 µM.

In the case of `CN1CCN(c2ccc3[nH]c(-c4cc(-c5ccncc5)c[nH]c4=O)nc3c2)CC1` [Compound A28, 5-[5-(4-Methyl-piperazin-1-yl)-1H-benzimidazol-2-yl]-1H-[3,4′]bipyridinyl-6-one], the IC50 in assay [1] worked out at 0.099 µM.

As for `CN1CCN(c2ccc3[nH]c(-c4cc(-c5cnn(C)c5)c[nH]c4=O)nc3c2)CC1` [Compound A30, 3-[5-(4-Methyl-piperazin-1-yl)-1H-benzimidazol-2-yl]-5-(1-methyl-1H-pyrazol-4-yl)-1H-pyridin-2-one], the IC50 was determined as 0.71 µM in assay [1] and 1.8 µM in assay [2].

For the molecule `CN1CCN(c2ccc3[nH]c(-c4cc(-c5cccnc5)c[nH]c4=O)nc3c2)CC1` [Compound A31, 5-[5-(4-Methyl-piperazin-1-yl)-1H-benzimidazol-2-yl]-1H-[3,3′]bipyridinyl-6-one], the IC50 in assay [1] turned out to be 3.4 µM; in assay [2] it was 5.5 µM.

Turning to `O=c1[nH]cc(-c2ccnc3[nH]ccc23)cc1-c1nc2ccccc2[nH]1` [Compound A39, 3-(1H-Benzimidazol-2-yl)-5-(1H-pyrrolo[2,3-b]pyridin-4-yl)-1H-pyridin-2-one], the IC50 was 0.12 µM in assay [1] and 0.19 µM in assay [2].

On to `NCc1ccc2[nH]c(-c3cc(-c4ccncc4)c[nH]c3=O)nc2c1` [Compound A54, 5-(5-Aminomethyl-1H-benzimidazol-2-yl)-1H-[3,4′]bipyridinyl-6-one], for which the figures for the IC50 in assay [1] and in assay [2] were 1.1 µM and 2.6 µM, respectively.

With `CC(=O)NCc1ccc2[nH]c(-c3cc(-c4ccncc4)c[nH]c3=O)nc2c1` [Compound A55, N-[2-(6-Oxo-1,6-dihydro-[3,4′]bipyridinyl-5-yl)-1H-benzimidazol-5-ylmethyl]-acetamide], the IC50 in assay [1] turned out to be 3.1 µM; in assay [2], 6.8 µM.

`CCN(CC)CCNC(=O)c1ccc2nc(-c3cc(-c4ccncc4)c[nH]c3=O)[nH]c2c1` [Compound A57, 2-(6-Oxo-1,6-dihydro-[3,4′]bipyridinyl-5-yl)-3H-benzimidazole-5-carboxylic acid (2-diethylamino-ethyl)-amide]: the IC50 in assay [2] came to 3.1 µM.

As to `CN1CCC(NC(=O)c2ccc3[nH]c(-c4cc(-c5ccncc5)c[nH]c4=O)nc3c2)CC1` [Compound A58, 2-(6-Oxo-1,6-dihydro-[3,4′]bipyridinyl-5-yl)-3H-benzimidazole-5-carboxylic acid (1-methyl-piperidin-4-yl)-amide], the IC50 amounted to 3.1 µM in assay [1] and 3.3 µM in assay [2].
